Biological target: T1, human PPAR alpha (Homo sapiens, UniProt Q07869)
T1 sequence (Q07869 1-468): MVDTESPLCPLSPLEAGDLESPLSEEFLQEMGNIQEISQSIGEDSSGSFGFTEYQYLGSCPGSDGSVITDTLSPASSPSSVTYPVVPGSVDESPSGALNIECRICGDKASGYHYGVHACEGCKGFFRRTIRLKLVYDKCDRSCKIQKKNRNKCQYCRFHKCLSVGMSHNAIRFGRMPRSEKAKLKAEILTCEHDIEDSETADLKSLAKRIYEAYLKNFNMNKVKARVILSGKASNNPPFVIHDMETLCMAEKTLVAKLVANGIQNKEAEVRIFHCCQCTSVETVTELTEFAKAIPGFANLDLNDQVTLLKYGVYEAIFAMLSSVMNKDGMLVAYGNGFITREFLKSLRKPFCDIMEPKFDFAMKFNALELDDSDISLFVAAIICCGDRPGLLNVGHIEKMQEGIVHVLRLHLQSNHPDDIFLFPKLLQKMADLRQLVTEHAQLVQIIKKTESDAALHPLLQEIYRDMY
Test: PPAR alpha assay as described in WO03/051821
Format: cell-based
Details: assay described in WO03/051821 (incorporated by reference)
Description: The compounds of the invention were tested in the assays described in WO03/051821 which is incorporated herein by reference.

## O=C(c1ccccc1)c1ccc(OCCc2ccc(CC(SCCc3ccc(O)cc3)C(=O)O)cc2)cc1 (stereo not shown) [Example 7, 3-{4-[2-(4-Benzoylphenoxy)ethyl]phenyl}-2-{[2-(4-hydroxyphenyl)ethyl]thio}propanoic acid]
  EC50: 780 nM

Source: patent US20060199857A1, “Therapeutic agents” (ASTRAZENECA UK LIMITED, priority 2003, published 2006)
